# Measured values from ChEMBL document CHEMBL3407452, “Linear and branched alkyl-esters and amides of gallic acid and other (mono-, di- and tri-) hydroxy benzoyl derivatives as promising anti-HCV inhibitors” (Eur J Med Chem, 2015).
# pEC50: −log10 of the molar value. The source made the active and inactive calls. The rule behind the calls is not given here.
# What was measured:
# Hepatitis C virus [1] = assay: Antiviral activity against HCV genotype 1b I389luc-ubi-neo/NS3-3'/5.1 replicons infected in human Huh5-2 HCV subgenomic replicon-containing cells assessed as reduction in virus replication after 3 days by luciferase reporter gene assay; format: functional, Hepacivirus hominis; conditions: Hepatitis C virus, genotype 1b, Huh-5-2, 72 h; for pEC50: read-out: EC50
# Human respirovirus 3 = assay: Antiviral activity against human parainfluenza virus 3; format: functional, organism-based
# Influenza A virus = assay: Antiviral activity against influenza A virus (H1N1); format: functional, organism-based
# Vaccinia virus = assay: Antiviral activity against vaccinia virus; format: functional, organism-based; conditions: Orthopoxvirus vaccinia
# Influenza A virus H3N2 = assay: Antiviral activity against influenza A virus H3N2; format: functional, organism-based
# Sindbis virus = assay: Antiviral activity against sindbis virus; format: functional, organism-based
# [2] = tested on: Respiratory syncytial virus; assay: Antiviral activity against RSV; format: functional, organism-based
# [3] = tested on: Human immunodeficiency virus 1; assay: Antiviral activity against HIV1 3B infected in human CEM cells assessed as reduction in virus-induced cytopathicity after 4 to 5 days by microscopy based syncytium cell formation assay; format: functional, organism-based, CCRF-CEM; conditions: Human immunodeficiency virus 1, 3B, CCRF-CEM; read-out: EC50
# Feline coronavirus = assay: Antiviral activity against feline coronavirus; format: functional, organism-based
# Punta Toro virus = assay: Antiviral activity against punta toro virus; format: functional, organism-based
# Coxsackievirus B4 = assay: Antiviral activity against human coxsackievirus B4; format: functional, organism-based
# [4] = tested on: Human immunodeficiency virus 2; assay: Antiviral activity against HIV2 ROD infected in human CEM cells assessed as reduction in virus-induced cytopathicity after 4 to 5 days by microscopy based syncytium cell formation assay; format: functional, organism-based, ISOLATE ROD, CCRF-CEM; conditions: Human immunodeficiency virus 2, ISOLATE ROD, CCRF-CEM; read-out: EC50
# [5] = Cytotoxicity against human Huh5-2 cells after 72 hrs by MTS assay; format: cell-based, Huh-5-2
# Reovirus sp. = assay: Antiviral activity against reovirus; format: functional, organism-based
# Felid alphaherpesvirus 1 = assay: Antiviral activity against feline herpesvirus; format: functional, organism-based
# [6] = tested on: Vesicular stomatitis virus; assay: Antiviral activity against vesicular stomatitis virus; format: functional, organism-based
# [7] = Cytotoxicity against human CEM cells assessed as inhibition of cell proliferation; format: cell-based; conditions: CEM cells (CCRF-CEM)
# Chikungunya virus = assay: Antiviral activity against chikungunya virus; format: functional
# [8] = Selectivity index, ratio of CC50 for human Huh5-2 cells to EC50 for HCV genotype 1b; parameters: species or system Huh-5-2
# [9] = Induction of phospholipidosis in human Huh-9-13 cells assessed as increase in charged lipid content at 33 uM to 100 uM after 3 days by nile red staining based confocal microscopy; format: cell-based; conditions: 72 h
# [10] = Cytotoxicity against human Huh-9-13 cells assessed as alteration in cell morphology at 33 uM to 100 uM after 3 days by nile red staining based confocal microscopy; conditions: 72 h
# [11] = Cytotoxicity against human Huh-9-13 cells assessed as alteration in cell morphology at 1 uM to 11 uM after 3 days by nile red staining based confocal microscopy; conditions: 72 h
# [12] = Cytotoxicity against human HuH6 cells after 72 hrs by MTS assay; format: cell-based
# [13] = Induction of phospholipidosis in human Huh-9-13 cells assessed as increase in charged lipid content at 1 uM to 11 uM after 3 days by nile red staining based confocal microscopy; format: cell-based; conditions: 72 h
# Hepatitis C virus [14] = assay: Antiviral activity against HCV genotype 1b I389luc-ubi-neo/NS3-3'/5.1 replicons infected in human Huh-9-13 HCV subgenomic replicon-containing cells assessed as reduction in virus replication after 3 days by RT-qPCR method; format: functional, Hepacivirus hominis; conditions: 72 h
# Hepatitis C virus [15] = assay: Antiviral activity against HCV genotype 1b I389luc-ubi-neo/NS3-3'/5.1 replicons infected in human HuH6 HCV subgenomic replicon-containing cells assessed as reduction in virus replication after 3 days by RT-qPCR method; format: functional, Hepacivirus hominis; conditions: HuH-6, 72 h
# [16] = Cytotoxicity against human Huh-9-13 cells assessed as reduction in cell number at 1 uM to 11 uM after 3 days by nile red staining based confocal microscopy; conditions: 72 h
# [17] = Cytotoxicity against human Huh-9-13 cells after 72 hrs by MTS assay; format: cell-based
# [18] = Cytotoxicity against human Huh-9-13 cells assessed as reduction in cell number at 33 uM to 100 uM after 3 days by nile red staining based confocal microscopy; conditions: 72 h
SMILES,EC90 (Hepatitis C virus [1]),pEC50 (Hepatitis C virus [1]),Activity (Human respirovirus 3),Activity (Influenza A virus),Activity (Vaccinia virus),Activity (Influenza A virus H3N2),Activity (Sindbis virus),Activity [2],pEC50 [3],Activity (Feline coronavirus),Activity (Punta Toro virus),Activity (Coxsackievirus B4),pEC50 [4],CC50 at 72 h [5],Activity (Reovirus sp.),Activity (Felid alphaherpesvirus 1),Activity [6],CC50 [7],Activity (Chikungunya virus),Ratio CC50/EC50 [8],also measured
O=C(OCCCCCCCCCCCCOC(=O)c1cc(O)c(O)c(O)c1)c1cc(O)c(O)c(O)c1,37 µM,5.19,inactive,inactive,inactive,inactive,inactive,inactive,5.34,inactive,inactive,inactive,< 5.00,> 50 µM,inactive,inactive,inactive,4.7 µM,inactive,>7,
CCCCCCCCCCCCOC(=O)c1cc(O)c(O)c(O)c1 [DODECYL GALLATE],1.8 µM,6.40,inactive,inactive,inactive,inactive,inactive,inactive,≤ 6.00,inactive,inactive,inactive,≤ 6.00,8.9 µM,inactive,inactive,inactive,2.8 µM,inactive,>22,
O=C(NCCCCCCCCCCCCNC(=O)c1ccc(O)c(O)c1O)c1ccc(O)c(O)c1O,6.1 µM,5.60,inactive,inactive,inactive,inactive,inactive,inactive,< 5.00,inactive,inactive,inactive,< 5.00,> 100 µM,inactive,inactive,inactive,55 µM,inactive,>40,Activity [9]: Toxic; Activity [10]: Toxic; Activity [11]: Non-toxic; CC50 at 72 h [12]: > 100 µM; Activity [13]: Non-toxic; pEC50 (Hepatitis C virus [14]): 5.08; pEC50 (Hepatitis C virus [15]): 4.48; Activity [16]: Non-toxic; CC50 at 72 h [17]: > 100 µM; Activity [18]: Toxic
